Reference: patent publication US20230365541A1, “INHIBITOR OF ENHANCER OF ZESTE HOMOLOGUE 2, AND USE THEREOF” (HAISCO PHARMACEUTICALS PTE. LTD., priority 2020, published 2023)
Blank lines part the entries; values can stand above or below the molecule they belong to.

Columns and labels:
[1] = tested on: SU-DHL-6 cells; assay: SU-DHL-6 cell proliferation test; assay type: cell-based, human; conditions: incubated for 14 days
Description: SU-DHL-6 cells are human B-cell lymphoma cell lines purchased from ATCC and cultured under the following conditions: RPMI-1640+10% FBS+1% double antibody in a 37° C., 5% CO2 incubator. The cells were plated in a 12-well plate, with a cell concentration of 1×10^5 cells/mL. After the cells were plated, the compounds at different concentrations were added and cultured in a 37° C., 5% CO2 incubator. The cells were counted every 3-4 days (Countstar automated cell counter), centrifuged to remove the supernatant, re-diluted to 1×10^5 cells/mL and plated, and then the compounds at different concentrations were further added. After the mixture was incubated for 14 days and the cells were counted, the test was terminated, and the IC50 values were calculated by using the Origen9.2 software.

[2] = biological target: EZH2 (Homo sapiens (Human), UniProt Q15910); assay: Test method for EZH2 enzyme activity; assay type: biochemical; conditions: H3K27(21-44) and [3H]-SAM
How it was run: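 EZH2 (3 nM final) preincubated 15 min with compound in Tris-HCl pH 9.0 buffer, then H3K27(21-44) peptide and [3H]-SAM added (mixture at 200 nM and 100 nM) for 60 min at room temperature. Reaction quenched with cold SAM; flashplate scintillation read, inhibition normalized to controls and IC50 fitted.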

[3] = Pharmacokinetic experiment in mice (single intragastric dose, 20 mg/kg); conditions: male, ICR, mouse, plasma, po
Description: (§2) Experimental objective: a single dose of test compounds was administered to ICR mice intragastrically, and the concentrations of the test compounds in plasma of the mice were measured to evaluate pharmacokinetic characteristics of the test compounds in the mice.
(§3) Experimental animal: male ICR mice, about 20-25 g, 6-8 weeks old, 3 mice/compound, purchased from Chengdu Dossy Experimental Animals Co., Ltd.
(§4) Experimental method: on the day of the experiment, three ICR mice were randomly grouped according to their body weight. The animals were fasted with water available for 12 to 14 hours one day before the administration, and were fed 4 hours after the administration.
(§5) Before and after the administration, 0.03 mL of blood was taken from the orbit of the animals under isoflurane anesthesia, and placed in an EDTAK2 centrifuge tube. Centrifugation was carried out at 5000 rpm at 4° C. for 10 min, and the plasma was collected.
(§6) Time points for sample collection comprise 0 (before the administration), 15 min, 30 min, 1 h, 2 h, 4 h, 6 h, 8 h and 24 h.
(§7) Before analysis and detection, all samples were stored at −80° C.

[4] = Pharmacokinetic experiment in monkeys; assay type: in vivo; conditions: male, cynomolgus monkey, plasma
Description: Experimental animal: twelve cynomolgus monkeys, 2.4-5.9 kg, male, 3-5.5 years old, purchased from Suzhou Xishan Zhongke Laboratory Animal Co., Ltd, with the production license number of SCXK(SU) 2018-0001.
Before and after the administration, 1.0 mL of blood was taken from the front and rear limb veins of the animals, and placed in an EDTAK2 centrifuge tube. […] Before analysis and detection, all plasma samples were stored at −80° C.

[5] = biological target: CYP2C19 (Homo sapiens (Human), UniProt P33261); assay: Cytochrome P450 isozyme inhibition experiment, CYP2C19; assay type: in vitro ADME; conditions: human liver microsomes
Sequence of CYP2C19 (P33261 whole entry): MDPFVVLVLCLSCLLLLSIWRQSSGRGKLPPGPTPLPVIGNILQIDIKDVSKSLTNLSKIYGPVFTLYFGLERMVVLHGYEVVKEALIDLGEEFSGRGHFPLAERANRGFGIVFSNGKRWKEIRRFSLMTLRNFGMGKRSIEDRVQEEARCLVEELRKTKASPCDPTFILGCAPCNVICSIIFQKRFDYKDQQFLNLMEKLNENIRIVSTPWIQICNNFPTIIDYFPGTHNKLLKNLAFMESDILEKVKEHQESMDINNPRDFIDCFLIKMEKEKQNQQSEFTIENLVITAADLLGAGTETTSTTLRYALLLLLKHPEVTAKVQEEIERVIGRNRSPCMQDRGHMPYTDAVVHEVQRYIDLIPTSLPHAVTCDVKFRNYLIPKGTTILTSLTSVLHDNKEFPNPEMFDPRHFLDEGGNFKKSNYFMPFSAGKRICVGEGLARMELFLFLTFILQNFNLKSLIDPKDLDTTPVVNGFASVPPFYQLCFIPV
Description: (§1) Experimental objective: the inhibitory effects of test compounds on the activity of human liver microsomal cytochrome P450 isozymes (CYP1A2, CYP2C9, CYP2C19, CYP2D6 and CYP3A4) were determined. […]

[6] = biological target: CYP2C9 (Homo sapiens (Human), UniProt P11712); assay: Cytochrome P450 isozyme inhibition experiment, CYP2C9; assay type: in vitro ADME; conditions: human liver microsomes
Sequence of CYP2C9 (P11712 whole entry): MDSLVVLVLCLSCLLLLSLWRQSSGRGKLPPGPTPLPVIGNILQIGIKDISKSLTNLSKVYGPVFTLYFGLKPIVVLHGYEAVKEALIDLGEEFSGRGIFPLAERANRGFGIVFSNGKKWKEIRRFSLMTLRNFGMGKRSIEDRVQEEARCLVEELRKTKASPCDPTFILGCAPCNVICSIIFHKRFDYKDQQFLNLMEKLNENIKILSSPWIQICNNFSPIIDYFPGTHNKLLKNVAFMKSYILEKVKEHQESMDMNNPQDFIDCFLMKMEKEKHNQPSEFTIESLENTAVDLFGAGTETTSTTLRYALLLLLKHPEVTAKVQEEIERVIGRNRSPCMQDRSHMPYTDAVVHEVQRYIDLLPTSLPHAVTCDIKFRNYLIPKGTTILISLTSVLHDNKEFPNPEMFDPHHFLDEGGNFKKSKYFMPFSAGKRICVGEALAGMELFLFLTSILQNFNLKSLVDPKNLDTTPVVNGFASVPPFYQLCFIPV
Description: as §1

[7] = biological target: CYP1A2 (Homo sapiens (Human), UniProt P05177); assay: Cytochrome P450 isozyme inhibition experiment, CYP1A2; assay type: in vitro ADME; conditions: human liver microsomes
Sequence of CYP1A2 (P05177 whole entry): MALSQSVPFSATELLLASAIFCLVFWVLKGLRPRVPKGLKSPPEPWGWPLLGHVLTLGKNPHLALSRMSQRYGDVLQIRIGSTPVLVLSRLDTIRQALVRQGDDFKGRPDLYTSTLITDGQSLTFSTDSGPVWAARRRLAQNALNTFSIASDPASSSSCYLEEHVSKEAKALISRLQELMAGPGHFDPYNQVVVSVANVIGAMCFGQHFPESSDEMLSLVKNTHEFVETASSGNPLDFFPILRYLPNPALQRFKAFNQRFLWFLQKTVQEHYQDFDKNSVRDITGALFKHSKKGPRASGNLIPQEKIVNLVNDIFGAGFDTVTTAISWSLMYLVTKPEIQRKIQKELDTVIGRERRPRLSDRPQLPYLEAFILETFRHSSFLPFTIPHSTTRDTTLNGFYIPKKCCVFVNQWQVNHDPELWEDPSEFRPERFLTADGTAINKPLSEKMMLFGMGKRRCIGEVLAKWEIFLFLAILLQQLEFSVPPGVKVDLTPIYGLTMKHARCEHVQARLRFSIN
Description: as §1

[8] = biological target: CYP2D6 (Homo sapiens (Human), UniProt P10635); assay: Cytochrome P450 isozyme inhibition experiment, CYP2D6; assay type: in vitro ADME; conditions: human liver microsomes
Sequence of CYP2D6 (P10635 whole entry): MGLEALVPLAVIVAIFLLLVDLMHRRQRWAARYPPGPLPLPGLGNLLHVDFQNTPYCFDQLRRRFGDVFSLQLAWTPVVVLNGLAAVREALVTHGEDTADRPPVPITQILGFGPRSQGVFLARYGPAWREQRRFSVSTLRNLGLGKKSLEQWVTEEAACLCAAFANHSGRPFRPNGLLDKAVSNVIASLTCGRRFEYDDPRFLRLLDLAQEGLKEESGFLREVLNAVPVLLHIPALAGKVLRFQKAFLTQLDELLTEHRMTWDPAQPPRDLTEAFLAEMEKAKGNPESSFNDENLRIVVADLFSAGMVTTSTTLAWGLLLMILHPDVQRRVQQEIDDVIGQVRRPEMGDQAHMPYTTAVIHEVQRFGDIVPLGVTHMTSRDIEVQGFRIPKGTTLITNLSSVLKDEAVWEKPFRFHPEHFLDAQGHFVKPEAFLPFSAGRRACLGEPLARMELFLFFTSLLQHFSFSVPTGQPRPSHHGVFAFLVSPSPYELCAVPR
Description: as §1

[9] = biological target: CYP3A4 (Homo sapiens (Human), UniProt P08684); assay: Cytochrome P450 isozyme inhibition experiment, CYP3A4; assay type: in vitro ADME; conditions: human liver microsomes, CYP3A4-M
Sequence of CYP3A4 (P08684 whole entry): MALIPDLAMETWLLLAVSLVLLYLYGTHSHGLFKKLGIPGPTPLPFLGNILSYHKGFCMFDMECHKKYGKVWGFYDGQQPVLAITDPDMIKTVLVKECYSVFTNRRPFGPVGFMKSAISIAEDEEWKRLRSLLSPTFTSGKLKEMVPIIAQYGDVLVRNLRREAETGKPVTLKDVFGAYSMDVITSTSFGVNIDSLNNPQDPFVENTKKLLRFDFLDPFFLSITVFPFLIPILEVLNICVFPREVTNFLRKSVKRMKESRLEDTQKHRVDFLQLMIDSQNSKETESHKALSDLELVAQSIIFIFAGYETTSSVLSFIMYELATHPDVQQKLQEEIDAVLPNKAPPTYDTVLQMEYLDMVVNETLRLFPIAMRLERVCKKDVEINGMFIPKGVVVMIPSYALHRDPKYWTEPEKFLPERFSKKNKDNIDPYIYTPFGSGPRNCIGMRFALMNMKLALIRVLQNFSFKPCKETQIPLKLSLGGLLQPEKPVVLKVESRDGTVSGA
Description: as §1

[10] = mouse, in vivo, po, 20 mg/kg
Description: as §2, §3, §4, §5, §6, §7

[11] = Pharmacokinetic experiment in mice (intravenous 5 mg/kg or intragastric 30 mg/kg); assay type: in vivo; conditions: male, ICR, mouse, plasma; for AUC: read-out: AUC
Description: The administration was performed according to table 5.
The concentrations of the compounds in EDTA-K2 anticoagulant plasma were determined by the LC-MS/MS method. The linear range of the standard curve of the compounds is 2-2000 ng/mL. After subjected to precipitating proteins with acetonitrile, the samples were analyzed by LC-MS/MS. The standard curve was subjected to a regression calculation using the weighted least square method (W=1/X^2), and quantified by calculating the ratio of test compound peak area to internal standard peak area.
• (1) except to the blank sample, 400 μL of internal standard working solution (Verapamil internal standard concentration in precipitant acetonitrile is 10.0 ng/mL) was added to a 1.5 mL centrifuge tube containing 30 μL of standard curve samples and quality control samples; • 200 μL of internal standard working solution (Verapamil internal standard concentration in precipitant acetonitrile is 10.0 ng/mL) was added to a 1.5 mL centrifuge tube containing 15 μL of unknown samples; • and 400 μL of acetonitrile was added to the blank sample; • (2) the mixture was mixed evenly for about 1 min in a vortex mixer; • (3) centrifugation was carried out at 10000 rpm at 4C for 10 mi; • (4) 175 μL of the supernatant was transferred to a new 96-well polypropylene plate, and then the plate was sealed and placed in a 10° C. sample tray for injection.

IC50 ([1]; Homo sapiens, SU-DHL-6, 336 h): 33 nM
IC50 [2]: 0.57 nM
AUC [3]: 1350 ng·h/mL
Cmax [3]: 598 ng/mL
half-life [3]: 202 min
Compound: CSc1cc(C)[nH]c(=O)c1CNC(=O)c1cc(Cl)c2c(c1C)OC(C)([C@H]1CC[C@@H](N[C@H]3C[C@H](F)C3)CC1)O2 (single isomer, unassigned) [Compound 34, isomer 1, 7-chloro-2-(4-((trans-3-fluorocyclobutyl)amino)cyclohexyl)-2,4-dimethyl-N-((6-methyl-4-(methylthio)-2-oxo-1,2-dihydropyridin-3-yl)methyl)benzo[d][1,3]dioxole-5-carboxamide]

AUC ([4]; IV 3 mg/kg): 1570 ± 39 ng·h/mL
C0 ([4]; IV 3 mg/kg): 2960 ± 601 ng/mL
half-life ([4]; IV 3 mg/kg): 161 ± 8.4 min
AUC ([4]; PO 15 mg/kg): 3310 ± 526 ng·h/mL
Cmax ([4]; PO 15 mg/kg): 2320 ± 562 ng/mL
Tmax ([4]; PO 15 mg/kg): 1 h
half-life ([4]; PO 15 mg/kg): 307 ± 19.2 min
bioavailability ([4]; PO 15 mg/kg vs IV 3 mg/kg): 42.1 ± 6.7%
IC50 [5]: > 50 µM
IC50 [6]: > 50 µM
IC50 [1]: 6.35 nM
IC50 [7]: > 50 µM
IC50 [8]: > 50 µM
IC50 [9]: > 50 µM
IC50 [2]: 0.44 nM
Compound: [2H]C([2H])(NC(=O)c1cc(Cl)c2c(c1C)OC(C)(C1CCC(NC3COC3)CC1)O2)c1c(SC)cc(C)[nH]c1=O (single isomer, unassigned) [Compound 59, isomer 2, 7-chloro-2,4-dimethyl-N-((6-methyl-4-(methylthio)-2-oxo-1,2-dihydropyridin-3-yl)methyl-d2)-2-(4-(oxetan-3-ylamino)cyclohexyl)benzo[d][1,3]dioxole-5-carboxamide]

Compound: CSc1cc(C)[nH]c(=O)c1CNC(=O)c1cc(Cl)c2c(c1C)OC(C)(C1CCN(CC3CC(F)(F)C3)CC1)O2 (single isomer, unassigned; isomer 1) [Compound 10, isomer 1, 7-chloro-2-(1-((3,3-difluorocyclobutyl)methyl)piperidin-4-yl)-2,4-dimethyl-N-((6-methyl-4-(methylthio)-2-oxo-1,2-dihydropyridin-3-yl)methyl)benzo[d][1,3]dioxole-5-carboxamide]
Conclusion on pharmacokinetics [10]: Conclusion: the compounds of the present disclosure, especially isomer 1 of compound 10 and isomer 1 of compound 34, have good pharmacokinetics with long half-life and short time to reach the highest concentration.
Curve area AUC [10]: 1097 h · ng · mL − 1
Half-life T1/2 [10]: 1.72 h
Plasma drug concentration Cmax [10]: 1238 ng/mL
Time to reach peak Tmax [10]: 0.25

IC50 [5]: > 50 µM
IC50 [6]: > 50 µM
IC50 [7]: > 50 µM
IC50 [8]: > 50 µM
IC50 [9]: 16.3 µM
half-life ([11]; iv, 5 mg/kg, IV 5 mg/kg): 379 min
AUC ([11]; iv, 5 mg/kg, IV 5 mg/kg): 1180 ng·h/mL
C0 ([11]; iv, 5 mg/kg, IV 5 mg/kg, read-out: C0): 2140 ng/mL
half-life ([11]; po, 30 mg/kg, PO 30 mg/kg): 183 min
bioavailability ([11]; po, 30 mg/kg, PO 30 mg/kg vs IV 5 mg/kg): 9.08%
AUC ([11]; po, 30 mg/kg, PO 30 mg/kg): 645 ng·h/mL
Cmax ([11]; po, 30 mg/kg, PO 30 mg/kg, read-out: Cmax): 262 ng/mL
Tmax ([11]; po, 30 mg/kg, PO 30 mg/kg, read-out: Tmax): 15 min
Compound: Cc1cc(C)c(CNC(=O)c2cc(Cl)c3c(c2C)O[C@@](C)([C@H]2CC[C@H](N(C)C)CC2)O3)c(=O)[nH]1 [Compound I-2, Valemetostat, reference compound]
